The record followed here is patent US10174033B2, “N6-substituted adenosine derivatives and N6-substituted adenine derivatives and uses thereof” (INSTITUTE OF MATERIA MEDICA, CHINESE ACADEMY OF MEDICAL …, priority 2009, dated 2019).

The test has as its system male ICR-mice. Description: Potentiation of sodium pentobarbital sleeping time test. The test is classed as in vivo. Here is the method:
Effects of N^6-substituted adenosine derivatives and/or N^6-substituted adenine derivatives on sodium pentobarbital-induced sleeping time in mice.
Name of Experiment: Potentiation of sodium pentobarbital sleeping time test.
Method of Experiment: Groups of 8-10 male ICR-mice with an average weight of 18-22 g were used. They were dosed orally or i.p. with the test compound or the vehicle. Thirty min after i.p. injection or 60 min after oral dosing 38 mg/kg sodium pentobarbital were injected intravenously. The latency and duration of sleep (loss of righting reflex) were recorded. The percentage of prolongation of sleeping time was calculated as: [(sleeping time of experimental group)−(sleeping time of control group)]/(sleeping time of control group)×100%.

[1] abbreviates: oral, 5 mg/kg, 38 mg/kg sodium pentobarbital 60 min later.
Where [2] appears, read: oral, 2.5 mg/kg, 38 mg/kg sodium pentobarbital 60 min later.
The mark [3] stands for this setting: intraperitoneal, 5 mg/kg, 38 mg/kg sodium pentobarbital 30 min later.

In the case of `C[C@H](Nc1ncnc2c1ncn2[C@@H]1O[C@H](CO)[C@@H](O)[C@H]1O)c1ccc(Cl)cc1` [Example 69, N^6-[(S)-1-(4-chlorophenyl)-ethyl]-adenosine], the “Sleep prolonging rate (%)” value under setting [1] amounted to 33%.

With `C[C@@H](Nc1ncnc2c1ncn2[C@@H]1O[C@H](CO)[C@@H](O)[C@H]1O)c1ccc(F)cc1` [Example 70, N^6-[(R)-1-(4-fluorophenyl)-ethyl]-adenosine], under setting [1], the “Sleep prolonging rate (%)” value worked out at 136%. The same measure, in the same setting: the figure for `C[C@H](Nc1ncnc2c1ncn2[C@@H]1O[C@H](CO)[C@@H](O)[C@H]1O)c1ccc(F)cc1` [Example 71, N^6-[(S)-1-(4-fluorophenyl)-ethyl]-adenosine] is 24%. For the compound `CC[C@@H](Nc1ncnc2c1ncn2[C@@H]1O[C@H](CO)[C@@H](O)[C@H]1O)c1ccccc1` [Example 75, N^6-[(R)-1-(phenyl)-propyl]-adenosine], the “Sleep prolonging rate (%)” value under setting [2] came out at 183%. With `CC[C@@H](Nc1ncnc2c1ncn2[C@@H]1O[C@H](COC(C)=O)C(OC(C)=O)C1OC(C)=O)c1ccccc1` (stereo partly drawn) [Example 76, N^6-[(R)-1-(phenyl)-propyl]-adenosine-2′,3′,5′-triacetate], the “Sleep prolonging rate (%)” value under setting [1] was 339%. As for `CC[C@@H](Nc1ncnc2c1ncn2[C@@H]1O[C@H](COC(C)=O)C(O)C1O)c1ccccc1` (stereo partly drawn) [Example 77, N^6-[(R)-1-(phenyl)-propyl]-adenosine-5′-acetate], under setting [1], the “Sleep prolonging rate (%)” value was 590%. Take `CC[C@H](Nc1ncnc2c1ncn2[C@@H]1O[C@H](CO)[C@@H](O)[C@H]1O)c1ccccc1` [Example 78, N^6-[(S)-1-(phenyl)-propyl]-adenosine]: under setting [2], the “Sleep prolonging rate (%)” value came out at 49%. In the case of `CC[C@H](Nc1ncnc2c1ncn2[C@@H]1O[C@H](COC(C)=O)C(OC(C)=O)C1OC(C)=O)c1ccccc1` (stereo partly drawn) [Example 79, N^6-[(S)-1-(phenyl)-propyl]-adenosine-2′,3′,5′-triacetate], the “Sleep prolonging rate (%)” value under setting [1] was 41%. On the same count and under the same terms, in the case of `CC[C@H](Nc1ncnc2c1ncn2[C@@H]1O[C@H](COC(C)=O)C(O)C1O)c1ccccc1` (stereo partly drawn) [Example 80, N^6-[(S)-1-(phenyl)-propyl]-adenosine-5′-acetate] it was 24%. In the case of `CCCOC[C@H]1O[C@@H](n2cnc3c(N[C@@H](CC)c4ccccc4)ncnc32)C(O)C1O` (stereo partly drawn) [Example 83, N^6-[(S)-1-(phenyl)-propyl]-adenosine-5′-propyl ether], the “Sleep prolonging rate (%)” value under setting [1] is listed as 4%.

For `CC[C@@H](Nc1ncnc2c1ncn2[C@@H]1O[C@H](COc2ccccc2[N+](=O)[O-])C(O)[C@@H]1O)c1ccccc1` (stereo partly drawn) [Example 85, N^6-[(R)-1-(phenyl)-propyl]-adenosine-5′-o-nitrophenyl ether], the “Sleep prolonging rate (%)” value under setting [1] is recorded as 87%.

For the compound `CCCOC[C@H]1O[C@@H](n2cnc3c(N[C@H](CC)c4ccccc4)ncnc32)C(O)C1O` (stereo partly drawn) [Example 86, N^6-[(R)-1-(phenyl)-propyl]-adenosine-5′-propyl ether], the “Sleep prolonging rate (%)” value under setting [1] is on record as 318%.

Consider `CCC[C@@H](Nc1ncnc2c1ncn2[C@@H]1O[C@H](CO)C(O)C1O)c1ccccc1` (stereo partly drawn) [Example 89, N^6-[(R)-(phenyl)-butyl]-adenosine], for which the “Sleep prolonging rate (%)” value under setting [1] is listed as 163%.

With `OC[C@H]1O[C@@H](n2cnc3c(NC(c4ccccc4)c4ccccc4)ncnc32)[C@H](O)[C@@H]1O` [Example 95, N^6-(diphenylmethyl)-adenosine], the “Sleep prolonging rate (%)” value under setting [1] was determined as 16%. On the same count and under the same terms, in the case of `OC[C@H]1O[C@@H](n2cnc3c(NC4c5ccccc5-c5ccccc54)ncnc32)[C@H](O)[C@@H]1O` [Example 98, N^6-(fluorene-9-yl)-adenosine] it was 53%.

As for `OC[C@H]1O[C@@H](n2cnc3c(N[C@H](c4ccccc4)[C@@H](O)c4ccccc4)ncnc32)C(O)C1O` (stereo partly drawn) [Example 99, N^6-{(1S,2R)-[2-hydroxy-(1,2-diphenyl)]-ethyl}-adenosine], the “Sleep prolonging rate (%)” value under setting [1] came out at 46%. On the same count and under the same terms, in the case of `OC[C@H]1O[C@@H](n2cnc3c(N[C@@H](c4ccccc4)[C@H](O)c4ccccc4)ncnc32)C(O)C1O` (stereo partly drawn) [Example 100, N^6-{(1R,2S)-[2-hydroxy-(1,2-diphenyl)]-ethyl}-adenosine] it was 38%. `O=C(O)[C@H](Cc1ccccc1)Nc1ncnc2c1ncn2[C@@H]1O[C@H](CO)C(O)C1O` (stereo partly drawn) [Example 102, N-(6-adenosine)-(L)-phenylalanine]: the “Sleep prolonging rate (%)” value under setting [3] is reported as 44%. Take `COC(=O)[C@@H](Cc1ccccc1)Nc1ncnc2c1ncn2[C@@H]1O[C@H](CO)C(O)C1O` (stereo partly drawn) [Example 105, N-(6-adenosine)-(D)-phenylalanine methyl ester]: under setting [1], the “Sleep prolonging rate (%)” value came out at 2%.

`O=C(O)[C@H](Cc1ccc(O)cc1)Nc1ncnc2c1ncn2[C@@H]1O[C@H](CO)C(O)C1O` (stereo partly drawn) [Example 107, N-(6-adenosine)-(L)-tyrosine]: under setting [3], the “Sleep prolonging rate (%)” value is on record as 66%.

As to `CCOC(=O)[C@@H](Cc1ccc(O)cc1)Nc1ncnc2c1ncn2[C@@H]1O[C@H](CO)C(O)C1O` (stereo partly drawn) [Example 108, N-(6-adenosine)-(D)-tyrosine ethyl ester], under setting [1], the “Sleep prolonging rate (%)” value stood at 32%. Same read-out and setting: the figure for `CCOC(=O)[C@H](Cc1ccc(O)cc1)Nc1ncnc2c1ncn2[C@@H]1O[C@H](CO)C(O)C1O` (stereo partly drawn) [Example 109, N-(6-adenosine)-(L)-tyrosine ethyl ester] is 36%. For `O=C(O)[C@H](Cc1c[nH]c2ccccc12)Nc1ncnc2c1ncn2[C@@H]1O[C@H](CO)C(O)C1O` (stereo partly drawn) [Example 112, N-(6-adenosine)-(D)-tryptophan], the “Sleep prolonging rate (%)” value under setting [3] was found to be 89%. Take `CCOC(=O)[C@H](Cc1c[nH]c2ccccc12)Nc1ncnc2c1ncn2[C@@H]1O[C@H](CO)C(O)C1O` (stereo partly drawn) [Example 113, N-(6-adenosine)-(L)-tryptophan ethyl ester]: under setting [1], the “Sleep prolonging rate (%)” value is reported as 7%. Same read-out and setting: the figure for `CCOC(=O)[C@@H](Cc1c[nH]c2ccccc12)Nc1ncnc2c1ncn2[C@@H]1O[C@H](CO)C(O)C1O` (stereo partly drawn) [Example 114, N-(6-adenosine)-(D)-tryptophan ethyl ester] is 16%. As for `O=C(O)[C@@H]1CCCN1c1ncnc2c1ncn2[C@@H]1O[C@H](CO)C(O)C1O` (stereo partly drawn) [Example 118, N-(6-adenosine)-(L)-proline], the “Sleep prolonging rate (%)” value under setting [3] came to 29%. On to `OCC(CO)Nc1ncnc2c1ncn2[C@@H]1O[C@H](CO)C(O)C1O` (stereo partly drawn) [Example 129, N^6-[2-(1,3-dihydroxy)-propyl]-adenosine], for which the “Sleep prolonging rate (%)” value under setting [1] was 184%.

Turning to `CC[C@H](C)[C@@H](CO)Nc1ncnc2c1ncn2[C@@H]1O[C@H](CO)C(O)C1O` (stereo partly drawn) [Example 131, N^6-[(L)-2-(1-hydroxy-3-methyl)-pentyl]-adenosine], under setting [1], the “Sleep prolonging rate (%)” value is 36%. On the same count and under the same terms, the figure for `CSCC[C@@H](CO)Nc1ncnc2c1ncn2[C@@H]1O[C@H](CO)C(O)C1O` (stereo partly drawn) [Example 132, N^6-[(L)-2-(1-hydroxy-4-methylthioyl)-butyl]-adenosine] is 53%; for `CN(Cc1ccccc1)c1ncnc2c1ncn2[C@@H]1O[C@H](CO)[C@@H](O)[C@H]1O` [Example 133, N^6-methyl-N^6-benzyl-adenosine] it is 27%. On the same count and under the same terms, in the case of `CCN(Cc1ccccc1)c1ncnc2c1ncn2[C@@H]1O[C@H](CO)[C@@H](O)[C@H]1O` [Example 134, N^6-ethyl-N^6-benzyl-adenosine] it was 7%. Still for that read-out and setting: the figure for `C[C@H]([C@@H](O)c1ccccc1)N(C)c1ncnc2c1ncn2[C@@H]1O[C@H](CO)C(O)C1O` (stereo partly drawn) [Example 135, N^6-methyl-N^6-[2-(1S,2R)-(1-hydroxy-1-phenyl)-propyl]-adenosine] is 39%; for `C[C@H]([C@H](O)c1ccccc1)N(C)c1ncnc2c1ncn2[C@@H]1O[C@H](CO)C(O)C1O` (stereo partly drawn) [Example 136, N^6-methyl-N^6-[2-(1R,2R)-(1-hydroxy-1-phenyl)-propyl]-adenosine] it is 44%.

With `OCCN(Cc1ccccc1)c1ncnc2c1ncn2[C@@H]1O[C@H](CO)[C@@H](O)[C@H]1O` [Example 138, N^6-(2-hydroxyethyl)-N^6-benzyl-adenosine], the “Sleep prolonging rate (%)” value under setting [1] stood at 18%.

In the case of `CCN(CCO)c1ncnc2c1ncn2[C@@H]1O[C@H](CO)[C@@H](O)[C@H]1O` [Example 139, N^6-ethyl-N^6-(2-hydroxyethyl)-adenosine], the “Sleep prolonging rate (%)” value under setting [1] is on record as 5%. Still for that read-out and setting: the figure for `CC(O)CN(CC(C)O)c1ncnc2c1ncn2[C@@H]1O[C@H](CO)[C@@H](O)[C@H]1O` (stereo partly drawn) [Example 140, N^6,N^6-bis(2-hydroxypropyl)-adenosine] is 5%.

On to `CN(c1ncnc2c1ncn2[C@@H]1O[C@H](CO)[C@@H](O)[C@H]1O)C1CCCCC1` [Example 141, N^6-methyl-N^6-cyclohexyl-adenosine], for which the “Sleep prolonging rate (%)” value under setting [1] amounted to 55%. The same measure, in the same setting: in the case of `C[C@@H](Nc1ncnc2[nH]cnc12)c1ccccc1` [Example 142, N^6-[(R)-1-(phenyl)-ethyl]-adenine] it was 21%; in that of `CC[C@@H](Nc1ncnc2[nH]cnc12)c1ccccc1` [Example 144, N^6-[(R)-1-(phenyl)-propyl]-adenine], 42%. Still for that read-out and setting: the figure for `CC[C@@H](Nc1ncnc2c1ncn2C1CCCO1)c1ccccc1` (stereo partly drawn) [Example 146, N^6-[(R)-1-(phenyl)-propyl]-N^9-(tetrahydrofuran-2-yl)-adenine] is 2%; for `COc1cc(CNc2ncnc3c2ncn3[C@H]2C[C@@H](OC(C)=O)[C@@H](COC(C)=O)O2)ccc1O` [Example 148, N^6-(3-methoxy-4-hydroxy-benzyl)-2′-deoxy-3′,5′-diacetyl adenosine] it is 71%; for `CC(=O)OC[C@H]1O[C@@H](n2cnc3c(NCc4ccc(C)cc4)ncnc32)C[C@H]1OC(C)=O` [Example 150, N^6-(p-methylbenzyl)-2′-deoxy-3′,5′-diacetyl adenosine] it is 9%.
